Assay results as given in patent publication US11267812B2 (Mirati Therapeutics, Inc., priority 2016, dated 2022).

Columns and labels:
KRas G12C = KRas G12C (Homo sapiens, UniProt P01116, C118S/C51S/C80L/G12C); assay: KRas G12C Modification Assay (LCMS detection of covalent adduct); type: binding; conditions: 5 μM compound, 3 hours
Method: A 10 μL aliquot of each protein solution was then transferred to a 384 well microtiter plate. Initial compound stocks were generated at fifty times their desired final assay concentration in DMSO.
Exemplary compounds of Formula (I) were diluted 25-fold into K-Ras Assay Buffer to a final of two times their final concentration. A 10 μL aliquot of each diluted compound solution was then added to each of the protein solutions in the microtiter plate to initiate reaction. […] At each time point, the reactions were quenched with 20 μL of a 25 mM acetic acid solution. […] Once all reactions were quenched, the plates were heat sealed and the samples were injected into a LC/MS system for data acquisition.
Samples were injected in their liquid phase onto a C-3 reverse phase column to remove assay buffer and prepare the samples for mass spectrometer. The proteins were eluted from the column using an acetonitrile gradient and fed directly into the mass analyzer. Initial raw data analysis took place in Agilent MassHunter software immediately post data acquisition.
Raw data analysis of the intact protein was exclusively a deconvolution of the multiple charge states of each protein in solution using a maximum entropy deconvolution provided in Mass Hunter. To minimize complexity, only the data over limited mass ranges were considered for analysis, with a minimum of one Dalton mass step intervals. The heights of all masses identified during raw data analysis were exported to be further analyzed in Spotfire® data analysis software.
Final data analysis was a multistep process in the Spotfire® data analysis software package. Briefly, each protein mass was calculated as a percent of the total signal of that sample, that percentage was then normalized to the percentage of signal of the protein in the absence of reactive compounds. Those normalized signals were reported as normalized percent of control (POC). […] Key: “A”≤25% POC; “B”>25% POC≤50% POC; “C”>50% POC and ND=not determined.

[1] = system: Phospho-ERK in NCI-H358 cells expressing KRas G12C; assay: Cellular inhibition of KRas G12C by Phospho-ERK measurement in NCI-H358 cells; type: cell-based; conditions: Homo sapiens; NCI-H358 cells, 3 hours compound treatment; read-out: IC50 (pERK(Thr202/Tyr204) normalized with GAPDH)
Outline: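 After 8–12 h attachment, NCI-H358 cells were treated with compounds for 3 h (0.5% DMSO final), fixed, methanol-permeabilized and immunostained. pERK(Thr202/Tyr204) was read by infrared imaging and normalized to GAPDH as percent of DMSO control. IC50 came from a 4-parameter fit.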

| POC (normalized percent of control, KRas G12C modification) (KRas G12C) | SMILES | IC50 [1] |
| --- | --- | --- |
| C (“C”>50% POC) | C=CC(=O)N1CCN(c2nc(OC[C@@H]3CCCN3C)nc3c2CCN(c2ccccc2C(C)C)C3)CC1 [Example 158, 1-[4-[7-(2-isopropylphenyl)-2-[[(2S)-1-methylpyrrolidin-2-yl]methoxy]-6,8-dihydro-5H-pyrido[3,4-d]pyrimidin-4-yl]piperazin-1-yl]prop-2-en-1-one] | – |
| C (“C”>50% POC) | C=CC(=O)N1CCN(c2nc(OCCCN3CCOCC3)nc3c2CCN(c2c(F)c(O)cc4ccccc24)C3)CC1 [Example 165, 1-[4-[7-(2-fluoro-3-hydroxy-1-naphthyl)-2-(3-morpholinopropoxy)-6,8-dihydro-5H-pyrido[3,4-d]pyrimidin-4-yl]piperazin-1-yl]prop-2-en-1-one] | – |
| B (“B”>25% POC≤50% POC) | C=CC(=O)N1CCN(c2nc(OCCCN3CCOCC3)nc3c2CCN(c2cc(O)cc4sc(C)nc24)C3)CC1 [Example 166, 1-[4-[7-(6-hydroxy-2-methyl-1,3-benzothiazol-4-yl)-2-(3-morpholinopropoxy)-6,8-dihydro-5H-pyrido[3,4-d]pyrimidin-4-yl]piperazin-1-yl]prop-2-en-1-one] | – |
| B (“B”>25% POC≤50% POC) | C=CC(=O)N1CCN(c2nc(OCCCN3CCOCC3)nc3c2CCN(c2cc(O)cc4cc(C)[nH]c24)C3)CC1 [Example 167, 1-(4-(7-(5-hydroxy-2-methyl-1H-indol-7-yl)-2-(3-morpholinopropoxy)-5,6,7,8-tetrahydropyrido[3,4-d]pyrimidin-4-yl)piperazin-1-yl)prop-2-en-1-one] | – |
| C (“C”>50% POC) | C=CC(=O)N1CCN(c2nc(OCCN(C)C)nc3c2CCN(c2cc(O)cc4ccccc24)C3)CC1CCO (stereo not drawn) [Example 171, 1-(4-(2-(2-(dimethylamino)ethoxy)-7-(3-hydroxynaphthalen-1-yl)-5,6,7,8-tetrahydropyrido[3,4-d]pyrimidin-4-yl)-2-(2-hydroxyethyl)piperazin-1-yl)prop-2-en-1-one] | – |
| – | C=CC(=O)N1CCN(c2nc(OC[C@@H]3CCCN3C)nc3c2CCN(c2cncc4ccccc24)C3)CC1CC#N (stereo partly drawn) [Example 260, 2-[4-[7-(4-isoquinolyl)-2-[[(2S)-1-methylpyrrolidin-2-yl]methoxy]-6,8-dihydro-5H-pyrido[3,4-d]pyrimidin-4-yl]-1-prop-2-enoyl-piperazin-2-yl]acetonitrile] | 1 to 1000 nM |
| – | C/C=C/C(=O)N1CCN(c2nc(OC[C@@H]3CCCN3C)nc3c2CCN(c2cccc4ccccc24)C3)CC1CC#N (stereo partly drawn) [Example 263, 2-[1-[(E)-but-2-enoyl]-4-[2-[[(2S)-1-methylpyrrolidin-2-yl]methoxy]-7-(1-naphthyl)-6,8-dihydro-5H-pyrido[3,4-d]pyrimidin-4-yl]piperazin-2-yl]acetonitrile] | 1 to 1000 nM |
| – | C=CC(=O)N1CCN(c2nc(OC[C@@H]3CCCN3C)nc3c2CCN(c2cccc(C)c2C(F)(F)F)C3)CC1CC#N (stereo partly drawn) [Example 265, 2-(1-acryloyl-4-(7-(3-methyl-2-(trifluoromethyl)phenyl)-2-(((S)-1-methylpyrrolidin-2-yl)methoxy)-5,6,7,8-tetrahydropyrido[3,4-d]pyrimidin-4-yl)piperazin-2-yl)acetonitrile] | 1 to 1000 nM |
| – | C=CC(=O)N1CCN(c2nc(OC[C@@H]3CCCN3CCOC)nc3c2CCN(c2cccc4ccccc24)C3)CC1CC#N (stereo partly drawn) [Example 266, 2-(1-acryloyl-4-(2-(((S)-1-(2-methoxyethyl)pyrrolidin-2-yl)methoxy)-7-(naphthalen-1-yl)-5,6,7,8-tetrahydropyrido[3,4-d]pyrimidin-4-yl)piperazin-2-yl)acetonitrile] | 1 to 1000 nM |
| – | C=CC(=O)N1CCN(c2nc(OC[C@@H]3C[C@@H](OC)CN3C)nc3c2CCN(c2cccc4ccccc24)C3)CC1CC#N (stereo partly drawn) [Example 268, 2-(1-acryloyl-4-(2-(((2S,4R)-4-methoxy-1-methylpyrrolidin-2-yl)methoxy)-7-(naphthalen-1-yl)-5,6,7,8-tetrahydropyrido[3,4-d]pyrimidin-4-yl)piperazin-2-yl)acetonitrile] | 1 to 1000 nM |
| – | C=CC(=O)N1CCN(c2nc(OCC(C)(C)N(C)C)nc3c2CCN(c2cccc4ccccc24)C3)CC1CC#N (stereo not drawn) [Example 269, 2-(1-acryloyl-4-(2-(2-(dimethylamino)-2-methylpropoxy)-7-(naphthalen-1-yl)-5,6,7,8-tetrahydropyrido[3,4-d]pyrimidin-4-yl)piperazin-2-yl)acetonitrile] | 1 to 1000 nM |
| – | C=CC(=O)N1CCN(c2nc(OC[C@H]3CN(C)CCO3)nc3c2CCN(c2cccc4ccccc24)C3)CC1CC#N (stereo partly drawn) [Example 270, 2-(1-acryloyl-4-(2-(((R)-4-methylmorpholin-2-yl)methoxy)-7-(naphthalen-1-yl)-5,6,7,8-tetrahydropyrido[3,4-d]pyrimidin-4-yl)piperazin-2-yl)acetonitrile] | 1 to 1000 nM |
| – | C=CC(=O)N1CCN(c2nc(OC[C@@H]3CN(C)CCO3)nc3c2CCN(c2cccc4ccccc24)C3)CC1CC#N (stereo partly drawn) [Example 271, 2-(1-acryloyl-4-(2-(((S)-4-methylmorpholin-2-yl)methoxy)-7-(naphthalen-1-yl)-5,6,7,8-tetrahydropyrido[3,4-d]pyrimidin-4-yl)piperazin-2-yl)acetonitrile] | 1 to 1000 nM |
| – | C=CC(=O)N1CCN(c2nc(OC[C@@H]3COCCN3C)nc3c2CCN(c2cccc4ccccc24)C3)CC1CC#N (stereo partly drawn) [Example 272, 2-(1-acryloyl-4-(2-(((S)-4-methylmorpholin-3-yl)methoxy)-7-(naphthalen-1-yl)-5,6,7,8-tetrahydropyrido[3,4-d]pyrimidin-4-yl)piperazin-2-yl)acetonitrile] | 1 to 1000 nM |
| – | C=CC(=O)N1CCN(c2nc(OC[C@H]3CCCN3C)nc3c2CCN(c2cccc(F)c2C(F)(F)F)C3)C[C@@H]1CC#N [Example 274, 2-((S)-1-acryloyl-4-(7-(3-fluoro-2-(trifluoromethyl)phenyl)-2-(((R)-1-methylpyrrolidin-2-yl)methoxy)-5,6,7,8-tetrahydropyrido[3,4-d]pyrimidin-4-yl)piperazin-2-yl)acetonitrile] | 1 to 1000 nM |
| – | C=CC(=O)N1CCN(c2nc(OC[C@@H]3CCCN3C)nc3c2CCN(c2c(F)cccc2C(F)(F)F)C3)CC1CC#N (stereo partly drawn) [Example 275, 2-(1-acryloyl-4-(7-(2-fluoro-6-(trifluoromethyl)phenyl)-2-(((S)-1-methylpyrrolidin-2-yl)methoxy)-5,6,7,8-tetrahydropyrido[3,4-d]pyrimidin-4-yl)piperazin-2-yl)acetonitrile] | 1 to 1000 nM |
| – | C=CC(=O)N1CCN(c2nc(OC[C@@H]3CCCN3C)nc3c2CCN(c2ccc(F)cc2C(F)(F)F)C3)CC1CC#N (stereo partly drawn) [Example 276, 2-(1-acryloyl-4-(7-(4-fluoro-2-(trifluoromethyl)phenyl)-2-(((S)-1-methylpyrrolidin-2-yl)methoxy)-5,6,7,8-tetrahydropyrido[3,4-d]pyrimidin-4-yl)piperazin-2-yl)acetonitrile] | 1 to 1000 nM |
| – | C=CC(=O)N1CCN(c2nc(OC[C@@H]3CCCN3C)nc3c2CCN(c2cccc(Cl)c2C(F)(F)F)C3)CC1CC#N (stereo partly drawn) [Example 277, 2-(1-acryloyl-4-(7-(3-chloro-2-(trifluoromethyl)phenyl)-2-(((S)-1-methylpyrrolidin-2-yl)methoxy)-5,6,7,8-tetrahydropyrido[3,4-d]pyrimidin-4-yl)piperazin-2-yl)acetonitrile] | 1 to 1000 nM |
